For one assay, the system named is p16^INK4a. Nature of the assay: mRNA expression by conventional RT-PCR. Type of assay: cell-based, Human. As to the method:
(§1) Conventional RT-PCR was also performed to assess the mRNA expression of p14^ARF 27, p16^INK4a 28, hMLH1^29, DNMT-1^30 and DNMT-3b^31. cDNA was generated with random hexamers using 2 μg of RNA. The PCR was performed as previously reported^32. β-actin was used as an endogenous control. The statistical significance of differences between the experimental points or between groups was analyzed using Student's t-test; and differences were considered significant when P<0.05.

A further assay relates to p14^ARF. Put plainly: mRNA expression by conventional RT-PCR. It is filed as cell-based, Human. As to the method:
as §1

Turning to `Nc1ncn([C@H]2C[C@H](O)[C@@H](CO)O2)c(=O)n1` [5-aza-2dC, 5-aza-2′deoxycytidine], the entries for the “p16^INK4a RNA transcripts” value in the assay with p16^INK4a (RKO) and in the assay with p16^INK4a (SW48 cells) were “re-expression” and “appearance of RNA transcripts”, respectively. The “p14^ARF RNA transcripts” value is recorded as “re-expression” with p14^ARF (RKO) and “appearance of RNA transcripts” in the assay with p14^ARF (SW48 cells).

The values above are taken from patent US20090076131A1, “Anti-Cancer and Anti-Inflammatory Effects of Annurca Apple Extracts and Compositions Purified Therefrom” (BAYLOR RESEARCH INSTITUTE, priority 2007, published 2009).
